Assay [1] concerns mice. The assay can be described thus: 2-phenyl-1,4-benzoquinone-induced writhing test in mice (PQW, analgesia). It counts as in vivo. Conditions: Mus musculus, sc, read-out: PQW (% decrease). From the text:
Compounds I and II of the present invention are useful as analgesic agents due to their ability to alleviate pain in mammals. […] Exptl. Biol. Med., 95, 729 (1957)].
For orientation: An intraperitoneal irritant provokes the stretching counted in writhing tests.

Another assay concerns rats. The assay can be described thus: Geller-conflict paradigm with rats (anxiolytic). It counts as in vivo. Particulars: i.p., CRF-conflict responding versus previous day's control trial. From the text:
Compounds I and II of the present invention are useful as anxiolytic agents. […] See Geller, Irving and Seifter, Psychopharmacologia Vol. 1, 482-492 (1962). Male rats are used as test subjects. They are housed individually and food and water are available ad libitum until they are 300 to 400 grams prior to the start of training. Subsequently they are food deprived until their body weight is reduced to approximately 80% of original and it is maintained at this level by a restricted food diet.
The programming and test equipment consists of solid state devices, shockers and cages within sound-attenuated environmental enclosures. The data is recorded on both solid state print-out counters and cumulative recorders. The cages are equipped with a houselight, a single-lever, cue-lights, a liquid dipper, a speaker and a grid-floor connected to a shocker. Sweetened condensed milk delivered by the liquid-dipper serve as the positive reinforcement for all subjects.
The subjects are trained to lever-press for the milk reward in two distinct response-reward sections. In the anxiety or "conflict" segment, signaled by onset of both tone and cue-lights, a dipper of milk is delivered in response to each lever-press (CRF schedule of reinforcement). However lever presses during this period are also accompanied by a 40 m sec pulse of aversive footshock through the grid-floor. This creates a "conflict between (1) easy access to milk reward and (2) the simultaneous presentation of a painful foot-shock. This "conflict" period is 3 minutes in duration.
During the other segment of this paradigm, the lever presses produces a dipper of milk only at variable intervals of time from 60 to 210 seconds with an average reward of once per 2 minutes (VI-2 min.). No shocks are ever administered during this VI phase of testing which is 15 minutes in duration.
The test procedure consists of four 15 minute (non-shock) VI segments where reinforcement was available on a limited basis. Each VI period is followed by a 3 minute "CRF"-conflict phase when reinforcement is constantly available but always accompanied by an aversive foot-shock. The shock-level is titrated for each subject to reduce the CRF responding to a total of less than 10 lever-presses during the entire test. The rats are tested four days a week. Drugs are administered on the third day and the performance is compared to the previous days control trial. The VI responses are used to evaluate any general debilitating drug effects, while the CRF responses are used to evaluate any "anti-anxiety" effects as indicated by increased responding during the "CRF-conflict" period.
All test compounds are administered by intraperitoneal injection in volumes of 10 cc/kg and the pretreat interval is usually one-half hour.

Assay [2] concerns mice. The assay can be described thus: supramaximal electroshock assay (SES, anticonvulsant). It counts as in vivo. Particulars: Mus musculus, ip, male mice, at peak activity time. Here is the method: Compounds I and II of the present invention are useful as anticonvulsant agents. […] Groups of male mice (18-30 grams) are used. Drugs are prepared using distilled water and if insoluble, a surfactant is added. Control animals receive vehicle. Drugs are routinely administered intraperitoneally. The dosage volume is 10 ml/kg.
The animal's eyes are placed across the output terminals of an A.C. shocker that delivers 206 volts rms for 300 milliseconds. Electrode paste coats the animal's eyes at the point of contact with the terminals.
Protection is expressed as normalized percent inhibition relative to vehicle control. [formula]
A time response is carried out using 6 animals per group. Animals are tested at 30, 60 and 120 minutes postdrug. Additional time periods are tested if indicated by previous tests.
When the peak activity time has been determined, a dose response is initiated, using 10 animals per group at that time period. The ED50 and 95% confidence interval are calculated by computerized probit analysis.
A general note: In the maximal electroshock model the usual endpoint is tonic extension of the hind limbs.

Assay [3] concerns the target benzodiazepine recognition sites. The assay can be described thus: benzodiazepine (Bz) binding, rat cerebral cortex membrane preparation. Particulars: rat cortex membranes, 2 nM radioactive benzodiazepine, pH 6.9, 20 minutes at 0-4° C. From the text: This assay is used to determine potential anxiolytic or anticonvulsant activity via direct interaction with benzodiazepine recognition sites in a membrane preparation obtained from rat brain.
Benzodiazepine is a widely prescribed phychoactive agent. It has various pharmacological properties, including anti-anxiety, anticonvulsant, muscle relaxant and hypnotic effects. The relationships between the pharmacological activities of this compound and the GABA receptor-chlorideionophore complex have been studied in the past. The values of IC50 listed in Table II were determined in the following manner. See Squires and Braestrup, "Benzodiazepine Receptors in Rat Brain", Nature, 266, 732-734 (1977). […]
a. 78.1 g of Tris-HCl q.s. to 1 liter b. 60.6 g of Tris-base q.s to 1 liter c. Adjust pH of Tris HCl to 6.9 at 25° C. by adding Tris base to obtain 0.5M Tris buffer, pH 6.9. d. Make a 1:10 dilution with distilled H2 O to obtain 0.05M Tris buffer, pH 6.9 2. 0.32M sucrose: 21.9 g of sucrose q.s. to 200 ml
3. Radioactive benzodiazepine: this marker compound is made up to a concentration of 80 nM and 50 μl of the solution is added to each tube, which yields a final concentration of 2 nM in the assay.
4. Test Compounds: 1 mM stock solution is made up in a suitable vehicle and serially diluted, such that the final concentration in the assay ranges from 10^-5 to 10^-8 M.
Male Wistar rats are decapitated and the brain rapidly removed. The cerebral cortices are removed, weighed and homogenized with a homogenizer in 20 volumes of ice-cold 0.32M sucrose. This homogenate is contrifuged at 1,000 g for 10 minutes, the pellet is discarded and the supernatant is recentrifuged at 30,000 g for 20 minutes. The resulting membrane pellet is resuspended in 40 volumes of 0.05M Tris buffer, pH 6.9.
1 ml 0.05M Tris buffer, pH 6.9
70 μl 0.5M Tris buffer, pH 6.9
50 μl radioactive benzodiazepine solution
20 μl vehicle or a solution containing an appropriate concentration of test drug 300 μl tissue suspension prepared above
A tube containing the […] listed above is incubated at 0°-4° C. in an ice bath. A 300 μl aliquot of the tissue suspension is added to the tube and the sample is then incubated for 20 minutes at 0°-4° C. and thereafter vacuum-filtered using a suitable filter. The filter is immediately rinsed with three 5 ml washes of ice-cold Tris buffer, pH 6.9. The radioactivity of the filter is counted in 10 ml of a counting cocktail. The value of the radioactive counting obtained for a sample containing a test drug is compared to the counting obtained for the sample not containing the test drug and the ratio between the two computed. The IC50 value for a given test drug is defined as that concentration of the test drug at which said ratio becomes 50% (IC stands for inhibitory concentration).

The values below come from US4588727A, “Intermediates for pyrrolo[1,2-b][1,2,5]triazepines” (Hoechst-Roussel Pharmaceuticals Inc., priority 1985, dated 1986).

Structures can show the parent of a compound that is named as a salt.

`CN(C(=O)CN)n1cccc1C(=O)c1ccccc1Cl` [1-(N-Methyl-aminoacetamido)-2-(2-chlorobenzoyl)pyrrole hydrobromide]: the inhibition in vivo at 20 mg/kg with mice [1] worked out at 42%.

By ED50 is commonly meant the dose at which the effect has come halfway, by size or by number of responders. The low end stands for greater potency, the high end for weaker potency. Broadly, the IC50 is the concentration that inhibits the measured activity by half. Turning to `Br.CN(C(=O)CN)n1cccc1C(=O)c1ccccc1F` [1-(N-Methyl-aminoacetamido)-2-(2-fluorobenzoyl)pyrrole hydrobromide], the “Geller dose/CRF: CRF” value with rats (dose 40 mg/kg) came to 11.2. The compound further registered an ED50 in the assay on mice [2] of 8.2 mg/kg. In addition, in assay [3], the IC50 is less than 10000 nM.

As to `NCC(=O)Nn1cccc1C(=O)c1ccccc1` [1-Aminoacetamido-2-benzoylpyrrole hydrochloride], the inhibition in vivo at 20 mg/kg in the assay with mice [1] was 23%.

Take `Br.CN1C(=O)CN=C(c2ccccc2)c2cccn21` [1-Methyl-5-phenyl-1H-pyrrolo[1,2-b][1,2,5]triazepin-2(3H)-one hydrobromide]: the “Geller dose/CRF: CRF” value in the assay on rats (dose 40 mg/kg) is 22.6. For the same compound, the IC50 in assay [3] was determined as 340 nM. Further, the inhibition in vivo at 20 mg/kg in the assay with mice [1] worked out at 26%.

On to `O=C(CNC(=O)OCc1ccccc1)Nn1cccc1C(=O)c1ccccc1` [1-[(Carbobenzyloxyamino)acetamido]-2-benzoylpyrrole], for which the inhibition in vivo at 20 mg/kg in the assay on mice [1] came out at 50%.

As to `CC(C)(C)OC(=O)NCC(=O)Nn1cccc1C(=O)c1ccccc1Cl` [1-[(t-Butoxycarbonylamino)acetamido]-2-(2-chlorobenzoyl)pyrrole], the inhibition in vivo at 20 mg/kg with mice [1] was determined as 49%.

Take `CC(C)(C)OC(=O)NCC(=O)Nn1cccc1C(=O)c1ccccc1F` [1-[(t-Butoxycarbonylamino)acetamido]-2-(2-fluorobenzoyl)pyrrole]: the inhibition in vivo at 20 mg/kg in the assay on mice [1] was 21%.

Turning to `CN(C(=O)CNC(=O)OC(C)(C)C)n1cccc1C(=O)c1ccccc1Cl` [1-[N-Methyl-(t-butoxycarbonylamino)acetamido]-2-(2-chlorobenzoyl)pyrrole], the inhibition in vivo at 20 mg/kg in the assay on mice [1] was 47%.

`CN1C(=O)CN=C(c2ccccc2Cl)c2cccn21` [5-(2-Chlorophenyl)-1-methyl-1H-pyrrolo[1,2-b][1,2,5]triazepin-2(3H)-one]: the “Geller dose/CRF: CRF” value with rats (dose 40 mg/kg) stood at 1.4. In the assay on mice [2], it took a dose of 17.9 mg/kg to reach the 50% effect level (ED50). In addition, the IC50 in assay [3] was 22.7 nM. Also, the inhibition in vivo at 20 mg/kg in the assay with mice [1] came out at 36%.

`O=C1CN=C(c2ccccc2Cl)c2cccn2N1` [5-(2-Chlorophenyl)-1H-pyrrolo[1,2-b][1,2,5]triazepin-2(3H)-one]: the “Geller dose/CRF: CRF” value in the assay on rats (dose 60 mg/kg) is listed as 15. For the same compound, the IC50 in assay [3] amounted to 204 nM.

Consider `CN1C(=O)CN=C(c2ccccc2F)c2cccn21.Cl` [5-(2-Fluorophenyl)-1-methyl-1H-pyrrolo[1,2-b][1,2,5]triazepin-2(3H)-one hydrochloride], for which, in the assay on mice [2], it took a dose of 43.6 mg/kg to reach the 50% effect level (ED50). In addition, the IC50 in assay [3] amounted to 62.1 nM. In the assay on mice [1], the inhibition in vivo at 20 mg/kg came to 27%.

In the case of `O=C1CN=C(c2ccccc2F)c2cccn2N1` [5-(2-Fluorophenyl)-1H-pyrrolo[1,2-b][1,2,5]triazepin-2(3H)-one], the “Geller dose/CRF: CRF” value in the assay on rats (dose 40 mg/kg) is given as 2.4. Besides, the IC50 in assay [3] was 586 nM.

As for `O=C1CN=C(c2ccccc2)c2cccn2N1` [5-Phenyl-1H-pyrrolo[1,2-b][1,2,5]triazepin-2(3H)-one], the IC50 in assay [3] turned out to be 6730 nM. Besides, the inhibition in vivo at 20 mg/kg in the assay with mice [1] came out at 31%.

Compound `CN1C(=O)CN=C(c2ccccc2F)c2ccc(Cl)n21.Cl` [8-Chloro-5-(2-fluorophenyl)-1-methyl-1H-pyrrolo[1,2-b][1,2,5]triazepin-2(3H)-one hydrochloride] showed an ED50 with mice [2] of 36.1 mg/kg. Also, the IC50 in assay [3] is 699 nM. Also, the inhibition in vivo at 20 mg/kg with mice [1] was found to be 19%.

Take `Cc1ccc(C(=O)c2ccccc2F)n1NC(=O)CNCC(=O)Nn1c(C)ccc1C(=O)c1ccccc1F` [Di-[(2-(2-fluorobenzoyl)-5-methyl-1H-pyrrol-1-yl)-2-acetamido]amine hydrochloride]: in the assay with mice [1], the inhibition in vivo at 20 mg/kg came to 68%.

Consider `CN(C)CCNn1cccc1C(=O)c1ccccc1Cl` [[2-(2-Chlorobenzoyl)-1H-pyrrol-1-yl]-2-(dimethylamino)ethylamine hydrobromide], for which, in the assay on mice [1], the inhibition in vivo at 20 mg/kg amounted to 72%.

As for `CCOC(=O)N(CCN(C)C)n1cccc1C(=O)c1ccccc1Cl` [[2-(2-Chlorobenzoyl)-1H-pyrrol-1-yl]-2-[(dimethylamino)ethyl]carbamic acid, ethyl ester hydrobromide], in the assay on mice [1], the inhibition in vivo at 20 mg/kg came out at 41%.
